In patent US11905244B2, “Chemical modulators of store-operated calcium channels and their therapeutic applications” (The Texas A&M University System, priority 2017, dated 2024):
Like-named read-outs stand apart in the source and are kept apart here.

Tests used:
Assay type in all cases: cell-based
[1] = biological target: CRAC channel (Homo sapiens (Human), UniProt Q96D31); test: GFP-NFAT translocation-based high-content screening (TG-stimulated HeLa cells stably expressing GFP-NFAT)
Excerpt: It is known that thapsigargin (TG) can induce the CRAC channel to open resulting in the calcium influx. The elevation of calcium in cytoplasm can activate the Ca^2+-calcineurin-NFAT pathway followed by NFAT translocation from the cytoplasm to the nucleus to regulate gene transcription. Therefore, the inventors built a GFP-NFAT translocation-based high-content screening method to evaluate the activity of compounds on CRAC channel. Briefly, a HeLa cell line stably expressing GFP-NFAT was established and used, and the images after chemical stimulation in the presence of TG were acquired using an IN Cell Analyzer 6000 confocal laser imaging system, and then the GFP fluorescent intensity ratio between cytoplasm and nucleus was analyzed to reflect the inhibitory activity of compound on CRAC channel.
Briefly, GFP-NFAT stable cells were cultured in Dulbecco's modified eagle's medium (DMEM) supplemented with 10% FBS in 5% carbon dioxide at 37° C. When it reached 90% confluency, a cell suspension with a concentration of […] was prepared, and an amount of 2000 cells per well (25 μL/well) was seeded in 384 well plate, putting it at the room temperature for 1 h to make sure the cells distribute evenly, then the cells were incubated overnight. First, primary screening of the selected compounds was conducted. A series of compound solutions with a concentration of 200 μM in MEDM medium were prepared in a 96 well plate and then added to a 384 well plate using a Beckman Coulter automatic drug adding system, in 4 duplicates, and incubated for 30 min at 37° C. SKF was selected as the positive control. Then, 1 μM TG and 1 mM Ca^2+ were added to 384-well plate using Beckman Coulter automatic drug adding system and incubated for 20 min. Subsequently, 384 well plate was gently washed with PBS twice, and the cells were fixed with 4% PFA (25 μl per well) for 10˜15 mins at room temperature, then washed with PBS gently, added 0.5% Triton X-100 (25 μL per well), and incubated for 5 mins aFt room temperature, stained with DAPI (1 μg/mL) for 5˜10 mins at room temperature, washed with PBS and added 30 μL PBS per well to image on confocal laser imaging system (objective lens: 10×, FITC and UV). Using Pipeline Plot software (NAFT translocation protocol), the intensity of green fluorescence was analyzed in nucleus and cytosol, calculate the ratio of nucleus:cytosol, normalize TG stimulate NFAT translocation as 1 and no TG adding as 0. Finally, the data was analyzed using GraphPad Prism 5 software.

[2] = tested on: calcium influx; test: Inhibitory activity on calcium influx
[3] = tested on: cytokine IL-2 expression in primary T cells; test: Effect of compounds on cytokine expression in primary T cells (flow cytometry); details: Mus musculus, T-cell
Protocol: The lymph nodes and a spleen from mouse were collected, and then the immune cells were induced to differentiate towards Th1 cells in presence of α-CD3, α-CD28, IL-12, and IL-2. After obtaining Th1 cells, the cells were amplified and then the cells were treated with drugs. The expression level of the cytokine was analyzed using flow cytometry.

[4] = tested on: Jurkat cells; test: Cell cycle analysis in Jurkat cells; details: compared to control
Protocol: (§1) Cells were treated with or without compounds at 37° C. with 5% CO2. After incubation for 24 h, cells were collected by trypsinization and fixed with cold 95% ethanol over 30 min at 4° C. Subsequently, the cell suspension was centrifuged at 1000 rmp/5 min, and washed with PBS one time. The cell pellets were resuspended in 0.4 mL PBS and treated with RNAase A (0.1 mg/mL) at 37° C. for 30 min. Then, propidium iodine (50 μg/mL, PI) was added and the cells were stained for 30 min at 37° C. Analysis of cellular DNA content was performed by flow cytometry.

[5] = tested on: U87 cells; test: Cell cycle analysis in U87 cells; details: compared to control
Protocol: as §1

[6] = tested on: MDA-MB-231 breast cancer cells; test: Migration assay (wound healing assay); details: MDA-MB-231, wound healing assay
Protocol: The effect of compounds on inhibiting migration was evaluated using wound healing assay. Briefly, cells were seeded in a six well-plate, and a wound was generated by scratching the cell monolayer with a 200 μL pipette tip. Then, cells were continued to be cultured in the presence or absence of compounds, and the photographic recording was performed at 0 h, 24 h, and 48 h respectively. The number of the migrated cells was calculated with ImageJ software.

[7] = tested on: MDA-MB-231 breast cancer cells; test: Invasion assay

Sequence of CRAC channel (Q96D31 whole entry): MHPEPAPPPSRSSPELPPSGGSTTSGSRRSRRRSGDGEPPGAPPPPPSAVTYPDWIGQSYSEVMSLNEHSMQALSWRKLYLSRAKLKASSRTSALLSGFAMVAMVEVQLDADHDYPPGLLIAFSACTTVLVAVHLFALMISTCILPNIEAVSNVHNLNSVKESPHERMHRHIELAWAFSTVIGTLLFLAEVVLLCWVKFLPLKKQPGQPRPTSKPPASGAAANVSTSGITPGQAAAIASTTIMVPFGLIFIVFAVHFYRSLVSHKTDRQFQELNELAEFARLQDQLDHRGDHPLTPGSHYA

Structure (SMILES) | Inhibitory activity on CRAC channel in primary screening (NFAT nucleus-to-cytosol ratio) ([1]; 200 μM compound) | IC50 ([1]; GFP-NFAT translocation assay, read-out: IC50 on CRAC channel) | IC50 ([1]; Table 1, hits from virtual screening, unit inferred, read-out: IC50 Value) | Inhibitory activity on calcium influx [2] | IC50 ([1]; Table 2, unit inferred, read-out: IC50 of the compounds (inhibitory activity on CRAC channel)) | IC50 [3] | Effect on cell cycle [4] | Effect on cell cycle [5] | Cell migration [6] | Cell invasion [7]
CCN/C(=N\c1cc(Cl)cc(Cl)c1)S[C@H]1CC(=O)N(c2ccc(C(=O)O)cc2)C1=O [Compound 41] | good activity | ~100 µM | 279 µM | obvious inhibitory activity |  |  |  |  |  | 
CCOC(=O)c1ccc(N2C(=O)CC(S/C(=N/c3ccccc3)NC3CC3)C2=O)cc1 (stereo not shown) [Compound 87] |  |  |  |  | 0.95 µM | 0.86 ± 0.12 µM | cell cycle arrest at GO stage | cell cycle arrest at GO stage | greatly inhibit | greatly inhibit
